# Test system: mouse activated CD8 T cells
# Test: Tcm differentiation and activation markers of stimulated mouse CD8 T cells (flow cytometry)
# Format: cell-based
# Protocol: 8) Stimulation of Mouse CD8 T Cells
# 2 μg/ml of 145-2C11 Hamster anti-Mouse CD3e in 300 μl of PBS are plated in 24 flat bottom well non-TC treated plates. Incubate O/N at 4° C. CD8 T cells from spleens of 8-12 weeks old OT-1 transgenic mice are isolated. 4×10^5 cells/ml are counted and resuspended in complete RPMI (RPMI+10% FBS heat inactivated at 55° C. for 45 min+Pen/Strep+55 μM β-Mercaptoethanol). The following 2× solutions are prepared:
# a. Anti-Mouse CD28 10 μg/ml 40 U/ml rmIL-2. (40 ml)
# 0.5 ml of 2× solution is added to the corresponding wells. Incubate for 4-8 days. Every 2 days add inhibitor to the corresponding concentration. When the cells are confluent, expand to 6 cm tissue culture plates adding 4 ml of complete RPMI+20 U/ml of IL-2 and in b add 10 μM K884.
# Calculate the specific cell lysis as follows: Specific cell lysis=((Sample−BF)/(AF−BF))×100 10) Flow Cytometry 1. Cell Activation • a. Wash cells with 1 ml of culture medium; • b. Centrifuge cells for 5 min at 300 g; • c. Resuspend cells in culture medium; • d. Prepare 2× solutions (negative control with only culture medium, Positive condition with 50 ng/mL of PMA and 500 ng/mL of lonomycin); • e. Plate 100 μL of cell suspension in 96 well plates (U-bottom); • f. Add 100 μL of 2× solutions in appropriate wells; • g. Incubate 4 hours at 37 C, 5% CO2. 2. Extracellular Staining • a. Record cell quantity transfers per tube; • b. Wash cells with 1 mL of PBS+2% FBS; • c. Centrifuge cells for 5 min at 300 g; • d. Empty tubes by inversion; • e. Add the antibodies for extracellular staining; • f. Incubate 20 min at 4° C.; • g. Wash cells with 1 mL of PBS+2% FBS; • h. Centrifuge cells for 5 min at 300 g; • i. Empty tubes by inversion; • j. Ressuspend cells in 100 μL fixation/permeabilisation buffer (eBioscience, #00-5223-56, 1 volume of concentrate buffer+3 volumes of diluent buffer) • k. Incubate 30 min at room temperature or overnight at 4° C. 3. Intracellular Staining • a. Wash cells with 1 mL of permeabilization buffer (eBioscience, #00-8333-56, dilution 1/10 in ddH2O); • b. Centrifuge cells for 5 min at 300 g; • c. […]
compound,measurement,setting,value
"CCOC(=O)c1cc2cc(C(F)(F)P(=O)(O)O)c(Br)cc2s1 [Ex. 1, ((6-BROMO-2-(ETHOXYCARBONYL)BENZO[B]THIOPHEN-5-YL)DIFLUOROMETHYL)PHOSPHONATE]","expression of IL-2 receptor alpha (CD25), fluorescence","activated mouse CD8 cells, Tcm gate, compared to untreated",increase on fluorescence closer to one order of magnitude
same,percentage of Tcm population relative to cells with IL-15 alone,followed by 5 days incubation with recombinant murine IL-15,~2 times
same,differentiation into Tcm cells (CD62Lhigh-CD27high),"mouse activated CD8 T cells, compared to untreated cells",increased differentiation into Tcm cells at higher rates than the observed in untreated cells

# — patent US11597739B2, “Enhancing CD8+ T cells for adoptive T cell therapy by inhibiting PTPN1 (PTP1B) and PTPN2 (TC-PTP)” (The Royal Institution for the Advancement of …, priority 2017, dated 2023)
